biological target: T1, Interleukin-1 receptor-associated kinase 4 (Homo sapiens, UniProt Q9NWZ3); test: Biochemical Assay
T1 sequence (Q9NWZ3 whole entry): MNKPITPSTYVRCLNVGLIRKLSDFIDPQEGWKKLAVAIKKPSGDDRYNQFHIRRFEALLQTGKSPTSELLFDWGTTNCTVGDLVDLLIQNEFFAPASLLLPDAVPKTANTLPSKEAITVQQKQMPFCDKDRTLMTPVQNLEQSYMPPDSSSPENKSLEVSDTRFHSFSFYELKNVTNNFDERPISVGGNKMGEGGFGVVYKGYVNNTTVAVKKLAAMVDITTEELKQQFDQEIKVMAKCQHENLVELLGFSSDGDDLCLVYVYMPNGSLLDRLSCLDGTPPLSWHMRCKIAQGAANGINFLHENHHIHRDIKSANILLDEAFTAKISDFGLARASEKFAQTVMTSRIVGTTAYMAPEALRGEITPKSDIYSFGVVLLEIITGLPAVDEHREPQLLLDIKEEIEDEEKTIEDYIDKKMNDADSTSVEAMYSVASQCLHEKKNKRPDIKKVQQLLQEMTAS

IC50 [nM] | Structure (SMILES)
0.3 | CC[C@H](C)Oc1nc2nc(C34COC(C)(C3)C4)cn2cc1C(=O)Nc1cccn([C@@H]2C[C@@H]2F)c1=O (mixture of isomers) [US20240116922, Example 42]
0.2 | CC[C@H](C)Oc1cc2nc(C34COC(C)(C3)C4)cn2cc1C(=O)Nc1cccn([C@@H]2C[C@@H]2F)c1=O (mixture of isomers) [US20240116922, Example 96]

Structure (SMILES) | IC50 [nM]
CC(C)Oc1cc2nc(C34COC(C)(C3)C4)cn2cc1C(=O)Nc1ccnn(C2CC2)c1=O [US20240116922, Example 76] | 1.6

Reference: BindingDB's records for patent US20240116922 (Biogen Ma, 2024)
